# “And” between values parts separate entries of the source, which are not always exact repeats. Equal values may be shown once. The source made the active and inactive calls. How the calls were made is not given here.
# Tested on: rodent lifetime carcinogenesis bioassay, tumor incidence TD50
# Assay: carcinogenic potency in animals, long-term in vivo studies, CPDB compilation (AID 1745844)
compound,measurement,setting,value
CCCNN,TD50,"mouse, strain Swiss albino, females, in drinking water, site: lung, lesion: adenocarcinoma, dosed 99 weeks, study length 99 weeks",109 mg/kg/day
same,TD50,"mouse, strain Swiss albino, females, in drinking water, site: lung, lesion: adenoma, dosed 99 weeks, study length 99 weeks",42.7 mg/kg/day
same,TD50,"mouse, strain Swiss albino, females, in drinking water, site: lung, lesion: several types, types named in the paper, dosed 99 weeks, study length 99 weeks",41.4 mg/kg/day
same,TD50,"mouse, strain Swiss albino, males, in drinking water, site: liver, lesion: liver-cell carcinoma, dosed 93 weeks, study length 93 weeks",102 mg/kg/day (inactive)
same,TD50,"mouse, strain Swiss albino, males, in drinking water, site: liver, lesion: several types, types named in the paper, dosed 93 weeks, study length 93 weeks",80.8 mg/kg/day
same,TD50,"mouse, strain Swiss albino, males, in drinking water, site: lung, lesion: adenoma, dosed 93 weeks, study length 93 weeks",41.3 mg/kg/day
same,TD50,"mouse, strain Swiss albino, males, in drinking water, site: lung, lesion: several types, types named in the paper, dosed 93 weeks, study length 93 weeks",50.5 mg/kg/day
Nc1ccc(Oc2ccc(N)c(N)c2)cc1,TD50,"mouse, strain ICR/Jcl, males, in feed, site: liver, lesion: hepatoma, dosed 52 weeks, study length 52 weeks",13.3 mg/kg/day
O=Nc1ccc(Nc2ccccc2)cc1,TD50,"mouse, strain B6C3F1, females, in feed, site: any site (literature study), lesion: several types, types named in the paper, dosed 53 weeks, study length 92 weeks",2170 mg/kg/day (inactive)
same,TD50,"mouse, strain B6C3F1, females, in feed, site: liver, lesion: hepatocellular adenoma + hepatocellular carcinoma + neoplastic nodule, dosed 53 weeks, study length 92 weeks",2250 mg/kg/day
same,TD50,"mouse, strain B6C3F1, females, in feed, site: lung, lesion: alveolar/bronchiolar adenoma + alveolar/bronchiolar carcinoma, dosed 53 weeks, study length 92 weeks",5410 mg/kg/day
same,TD50,"mouse, strain B6C3F1, males, in feed, site: any site (literature study), lesion: several types, types named in the paper, dosed 53 weeks, study length 92 weeks",260 mg/kg/day
same,TD50,"mouse, strain B6C3F1, males, in feed, site: liver, lesion: hepatocellular adenoma + hepatocellular carcinoma + neoplastic nodule, dosed 53 weeks, study length 92 weeks",340 mg/kg/day
same,TD50,"mouse, strain B6C3F1, males, in feed, site: liver, lesion: hepatocellular adenoma + hepatocellular carcinoma, dosed 53 weeks, study length 92 weeks",340 mg/kg/day
same,TD50,"mouse, strain B6C3F1, males, in feed, site: liver, lesion: hepatocellular carcinoma, dosed 53 weeks, study length 92 weeks",661 mg/kg/day
same,TD50,"mouse, strain B6C3F1, males, in feed, site: lung, lesion: alveolar/bronchiolar adenoma + alveolar/bronchiolar carcinoma, dosed 53 weeks, study length 92 weeks",3520 mg/kg/day
same,carcinogen call,"rat, strain Fischer 344, females, in feed, site: any site (literature study), lesion: several types, types named in the paper, dosed 78 weeks, study length 105 weeks",negative (inactive)
same,TD50,"rat, strain Fischer 344, females, in feed, site: liver, lesion: hepatocellular adenoma + hepatocellular carcinoma + neoplastic nodule, dosed 78 weeks, study length 105 weeks",1210 mg/kg/day
same,TD50,"rat, strain Fischer 344, males, in feed, site: liver, lesion: hepatocellular adenoma + hepatocellular carcinoma + neoplastic nodule, dosed 78 weeks, study length 105 weeks",201 mg/kg/day
same,TD50,"rat, strain Fischer 344, males, in feed, site: liver, lesion: hepatocellular carcinoma + neoplastic nodule, dosed 78 weeks, study length 105 weeks",201 mg/kg/day
CC(=O)Nc1ccc(S(=O)(=O)O)c2cc(S(=O)(=O)O)c(N=Nc3ccc(N=Nc4ccc(S(=O)(=O)O)cc4)c4ccc(S(=O)(=O)O)cc34)c(O)c12,carcinogen call,"mouse, strain CFW, females, in feed, site: liver, lesion: one or several types, types not named, dosed 80 weeks, study length 80 weeks",negative (inactive)
same,carcinogen call,"mouse, strain CFW, females, in feed, site: lung, lesion: adenoma, dosed 80 weeks, study length 80 weeks",negative (inactive)
same,carcinogen call,"mouse, strain CFW, males, in feed, site: liver, lesion: one or several types, types not named, dosed 80 weeks, study length 80 weeks",negative (inactive)
same,TD50,"mouse, strain CFW, males, in feed, site: lung, lesion: adenoma, dosed 80 weeks, study length 80 weeks",3660 mg/kg/day (inactive)
same,carcinogen call,"rat, strain CFE, females, in feed, site: liver, lesion: one or several types, types not named, dosed 104 weeks, study length 104 weeks",negative (inactive)
same,carcinogen call,"rat, strain CFE, males, in feed, site: liver, lesion: one or several types, types not named, dosed 104 weeks, study length 104 weeks",negative (inactive)
CCC1(c2ccccc2)C(=O)NCNC1=O,TD50,"mouse, strain B6C3F1, females, in feed, site: any site (literature study), lesion: several types, types named in the paper, dosed 101 weeks, study length 104 weeks",163 mg/kg/day
same,TD50,"mouse, strain B6C3F1, females, in feed, site: liver, lesion: hepatoblastoma + hepatocellular carcinoma, dosed 101 weeks, study length 104 weeks",98.7 mg/kg/day
same,TD50,"mouse, strain B6C3F1, females, in feed, site: liver, lesion: hepatoblastoma, dosed 101 weeks, study length 104 weeks",1390 mg/kg/day
same,TD50,"mouse, strain B6C3F1, females, in feed, site: liver, lesion: hepatocellular adenoma + hepatoblastoma + hepatocellular carcinoma, dosed 101 weeks, study length 104 weeks",42.8 mg/kg/day
same,TD50,"mouse, strain B6C3F1, females, in feed, site: liver, lesion: hepatocellular adenoma + hepatocellular carcinoma, dosed 101 weeks, study length 104 weeks",28.9 mg/kg/day
same,TD50,"mouse, strain B6C3F1, females, in feed, site: liver, lesion: hepatocellular adenoma, dosed 101 weeks, study length 104 weeks",27.7 mg/kg/day
same,TD50,"mouse, strain B6C3F1, females, in feed, site: liver, lesion: hepatocellular carcinoma, dosed 101 weeks, study length 104 weeks",97.3 mg/kg/day
same,TD50,"mouse, strain B6C3F1, males, in feed, site: all sites, lesion: histiocytic sarcoma, dosed 101 weeks, study length 103 weeks",1150 mg/kg/day
same,TD50,"mouse, strain B6C3F1, males, in feed, site: any site (literature study), lesion: several types, types named in the paper, dosed 101 weeks, study length 103 weeks",77.6 mg/kg/day
same,TD50,"mouse, strain B6C3F1, males, in feed, site: liver + thyroid gland, lesion: hepatocellular adenoma + hepatoblastoma + hepatocellular carcinoma + follicular-cell adenoma, dosed 101 weeks, study length 103 weeks",60.2 mg/kg/day
same,TD50,"mouse, strain B6C3F1, males, in feed, site: liver, lesion: hepatoblastoma + hepatocellular carcinoma, dosed 101 weeks, study length 103 weeks",24.7 mg/kg/day
same,TD50,"mouse, strain B6C3F1, males, in feed, site: liver, lesion: hepatoblastoma, dosed 101 weeks, study length 103 weeks",52.5 mg/kg/day
same,TD50,"mouse, strain B6C3F1, males, in feed, site: liver, lesion: hepatocellular adenoma + hepatoblastoma + hepatocellular carcinoma, dosed 101 weeks, study length 103 weeks",60.2 mg/kg/day
same,TD50,"mouse, strain B6C3F1, males, in feed, site: liver, lesion: hepatocellular adenoma + hepatocellular carcinoma, dosed 101 weeks, study length 103 weeks",60.4 mg/kg/day
same,TD50,"mouse, strain B6C3F1, males, in feed, site: liver, lesion: hepatocellular adenoma, dosed 101 weeks, study length 103 weeks",46.8 mg/kg/day
same,TD50,"mouse, strain B6C3F1, males, in feed, site: liver, lesion: hepatocellular carcinoma, dosed 101 weeks, study length 103 weeks",55 mg/kg/day
same,TD50,"mouse, strain B6C3F1, males, in feed, site: lung, lesion: alveolar/bronchiolar adenoma + alveolar/bronchiolar carcinoma, dosed 101 weeks, study length 103 weeks",1760 mg/kg/day
same,TD50,"mouse, strain B6C3F1, males, in feed, site: thyroid gland, lesion: follicular-cell adenoma, dosed 101 weeks, study length 103 weeks",349 mg/kg/day
same,carcinogen call,"rat, strain Fischer 344, females, in feed, site: any site (literature study), lesion: several types, types named in the paper, dosed 101 weeks, study length 103 weeks",negative (inactive)
same,TD50,"rat, strain Fischer 344, females, in feed, site: liver, lesion: hepatocellular adenoma + hepatoblastoma + hepatocellular carcinoma, dosed 101 weeks, study length 103 weeks",4050 mg/kg/day
same,TD50,"rat, strain Fischer 344, males, in feed, site: adrenal medulla, lesion: pheochromocytoma benign, bilateral + pheochromocytoma, benign, dosed 99 weeks, study length 103 weeks",20.8 mg/kg/day
same,TD50,"rat, strain Fischer 344, males, in feed, site: adrenal medulla, lesion: pheochromocytoma benign, bilateral + pheochromocytoma, malignant + pheochromocytoma, benign, dosed 99 weeks, study length 103 weeks",20.8 mg/kg/day
same,TD50,"rat, strain Fischer 344, males, in feed, site: any site (literature study), lesion: several types, types named in the paper, dosed 99 weeks, study length 103 weeks",15.4 mg/kg/day
same,TD50,"rat, strain Fischer 344, males, in feed, site: kidney, lesion: tubule adenoma + tubule carcinoma, dosed 99 weeks, study length 103 weeks",522 mg/kg/day and 967 mg/kg/day
same,TD50,"rat, strain Fischer 344, males, in feed, site: kidney, lesion: tubule adenoma, dosed 99 weeks, study length 103 weeks",1280 mg/kg/day and 1290 mg/kg/day
same,TD50,"rat, strain Fischer 344, males, in feed, site: liver, lesion: hepatocellular adenoma + hepatoblastoma + hepatocellular carcinoma, dosed 99 weeks, study length 103 weeks",138 mg/kg/day
same,TD50,"rat, strain Fischer 344, males, in feed, site: testis, lesion: interstitial-cell adenoma, bilateral + interstitial-cell adenoma, dosed 99 weeks, study length 103 weeks",8.15 mg/kg/day
same,TD50,"rat, strain Fischer 344, males, in feed, site: thyroid gland, lesion: follicular-cell adenoma + follicular-cell carcinoma, dosed 99 weeks, study length 103 weeks",80.2 mg/kg/day
same,TD50,"rat, strain Fischer 344, males, in feed, site: thyroid gland, lesion: follicular-cell adenoma, dosed 99 weeks, study length 103 weeks",174 mg/kg/day
CCOC(=O)c1ccc(N)cc1,TD50,"rat, strain ACI, both sexes, in feed, site: colorectum, lesion: papilloma, dosed 94 weeks, study length 94 weeks",331 mg/kg/day
same,TD50,"rat, strain ACI, both sexes, in feed, site: colorectum, lesion: squamous-cell carcinoma, dosed 94 weeks, study length 94 weeks",1760 mg/kg/day
same,TD50,"rat, strain ACI, both sexes, in feed, site: intestine, lesion: several types, types named in the paper, dosed 94 weeks, study length 94 weeks",191 mg/kg/day
same,TD50,"rat, strain ACI, females, in feed, site: cecum, lesion: adenoma, dosed 68 weeks, study length 68 weeks",1270 mg/kg/day
same,TD50,"rat, strain ACI, females, in feed, site: colorectum, lesion: adenocarcinoma, dosed 68 weeks, study length 68 weeks",373 mg/kg/day
same,TD50,"rat, strain ACI, females, in feed, site: colorectum, lesion: adenoma, dosed 68 weeks, study length 68 weeks",977 mg/kg/day
same,TD50,"rat, strain ACI, females, in feed, site: colorectum, lesion: papilloma, dosed 68 weeks, study length 68 weeks",219 mg/kg/day
same,TD50,"rat, strain ACI, females, in feed, site: colorectum, lesion: squamous-cell carcinoma, dosed 68 weeks, study length 68 weeks",1760 mg/kg/day
same,TD50,"rat, strain ACI, females, in feed, site: urinary bladder, lesion: one or several types, types not named, dosed 68 weeks, study length 68 weeks",2560 mg/kg/day (inactive) and 1640 mg/kg/day (inactive)
same,TD50,"rat, strain ACI, males, in feed, site: cecum, lesion: adenoma, dosed 68 weeks, study length 68 weeks",4250 mg/kg/day (inactive)
same,TD50,"rat, strain ACI, males, in feed, site: colorectum, lesion: adenocarcinoma, dosed 68 weeks, study length 68 weeks",182 mg/kg/day
same,TD50,"rat, strain ACI, males, in feed, site: colorectum, lesion: adenoma, dosed 68 weeks, study length 68 weeks",1700 mg/kg/day
same,TD50,"rat, strain ACI, males, in feed, site: colorectum, lesion: squamous-cell carcinoma, dosed 68 weeks, study length 68 weeks",2050 mg/kg/day
Nc1ccc(N=Nc2ccc(N)cc2)cc1,carcinogen call,"mouse, strain BALB/cLacDp, females, in feed, site: liver, lesion: several types, types named in the paper, dosed 60 weeks, study length 132 weeks",negative (inactive)
same,TD50,"mouse, strain BALB/cLacDp, females, in feed, site: lung, lesion: several types, types named in the paper, dosed 60 weeks, study length 132 weeks",240 mg/kg/day (inactive)
same,carcinogen call,"mouse, strain BALB/cLacDp, males, in feed, site: liver, lesion: several types, types named in the paper, dosed 60 weeks, study length 132 weeks",negative (inactive)
same,TD50,"mouse, strain BALB/cLacDp, males, in feed, site: lung, lesion: several types, types named in the paper, dosed 60 weeks, study length 132 weeks",213 mg/kg/day (inactive)
CCCCCCCCCc1ccc(OCCO)cc1,TD50,"mouse, strain B6C3F1, females, in feed, site: liver, lesion: hepatocellular adenoma, dosed 104 weeks, study length 104 weeks",8670 mg/kg/day (inactive)
same,carcinogen call,"mouse, strain B6C3F1, females, in feed, site: liver, lesion: hepatocellular carcinoma, dosed 104 weeks, study length 104 weeks",negative (inactive)
same,carcinogen call,"rat, strain F344/DuCrj, females, in feed, site: liver, lesion: hepatocellular adenoma, dosed 104 weeks, study length 104 weeks",negative (inactive)
same,carcinogen call,"rat, strain F344/DuCrj, females, in feed, site: liver, lesion: one or several types, types not named, dosed 52 weeks, study length 52 weeks",negative (inactive)
CC(=O)N(O)c1ccc(-c2ccccc2)cc1,carcinogen call,"rat, strain Not specified, females, in feed, site: liver, lesion: one or several types, types not named, dosed 43 weeks, study length 65 weeks",negative (inactive)

# From PubChem BioAssay AID1745844 (Carcinogenic Potency Database (CPDB), 2022)
